In the test the target is T1, recombinant human GR (Homo sapiens, UniProt P04150).
T1 construct: purchased Panvera/Invitrogen P2812 (kit P2893)
T1 sequence (P04150 1-777): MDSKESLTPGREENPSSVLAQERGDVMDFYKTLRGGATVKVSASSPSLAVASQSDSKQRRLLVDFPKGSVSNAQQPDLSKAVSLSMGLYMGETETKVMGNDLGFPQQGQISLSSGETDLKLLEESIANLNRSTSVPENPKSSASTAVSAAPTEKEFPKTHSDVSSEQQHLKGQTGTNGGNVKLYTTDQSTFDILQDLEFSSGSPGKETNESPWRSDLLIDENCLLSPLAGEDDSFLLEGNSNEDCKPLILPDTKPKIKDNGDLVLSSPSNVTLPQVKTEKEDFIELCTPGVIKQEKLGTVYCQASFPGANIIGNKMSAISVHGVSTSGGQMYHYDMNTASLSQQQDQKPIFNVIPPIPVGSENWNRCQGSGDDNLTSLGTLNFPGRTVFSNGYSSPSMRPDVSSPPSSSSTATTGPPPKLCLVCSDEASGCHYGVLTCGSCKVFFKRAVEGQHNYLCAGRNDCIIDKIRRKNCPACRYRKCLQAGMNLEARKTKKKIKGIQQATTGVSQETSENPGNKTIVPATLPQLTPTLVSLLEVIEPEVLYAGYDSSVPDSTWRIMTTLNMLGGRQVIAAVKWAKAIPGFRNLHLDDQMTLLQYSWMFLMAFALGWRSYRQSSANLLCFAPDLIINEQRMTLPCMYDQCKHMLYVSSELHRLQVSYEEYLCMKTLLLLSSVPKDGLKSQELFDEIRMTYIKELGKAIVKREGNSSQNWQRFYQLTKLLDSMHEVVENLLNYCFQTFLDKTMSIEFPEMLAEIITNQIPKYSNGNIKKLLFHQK
The experiment in a line: Human Glucocorticoid Receptor (GR) Assay (fluorescence polarization, Panvera/Invitrogen kit). Format: binding. To be noted: GS Red tracer, incubated at room temperature for 2 hours, 100% control 10 μM Dexamethasone, read-out: GRhuFL_FP_v2 (GR-binders) IC50. The protocol:
Human Glucocorticoid Receptor (GR) Assay
The assay is based on a commercial kit from Panvera/Invitrogen (Part number P2893). The assay technology is fluorescence polarization. The kit utilises recombinant human GR (Panvera, Part number P2812), a Fluoromone™ labelled tracer (GS Red, Panvera, Part number P2894) and a Stabilizing Peptide 10X (Panvera, Part number P2815). The GR and Stabilizing Peptide reagents are stored at −70° C. while the GS Red is stored at −20° C. Also included in the kit are 1M DTT (Panvera, Part number P2325, stored at −20° C.) and GR Screening buffer 10X (Panvera, Part number P2814, stored at −70° C. initially but once thawed stored at room temperature). Avoid repeated freeze/thaws for all reagents. The GR Screening buffer 10X comprises 100 mM potassium phosphate, 200 mM sodium molybdate, 1 mM EDTA and 20% DMSO.
Test compounds (1 μL) and controls (1 μL) in 100% DMSO were added to black polystyrene 384-well plates (Greiner low volume black flat-bottom, part number 784076). […] was 100% DMSO and 100% control was 10 μM Dexamethasone. Background solution (8 μL; assay buffer 10X, Stabilizing Peptide, DTT and ice cold MQ water) was added to the background wells. GS Red solution (7 μL; assay buffer 10X, Stabilizing Peptide, DTT, GS Red and ice cold water) was added to all wells except background wells. GR solution (7 μL; assay buffer 10X, Stabilizing Peptide, DTT, GR and ice cold water) was added to all wells. The plate was sealed and incubated in a dark at room temperature for 2 hours. The plate was read in an Analyst plate reader (LJL Biosystems/Molecular Devices Corporation) or other similar plate reader capable of recording fluorescence polarization (excitation wavelength 530 nm, emission wavelength […] and a dichroic mirror at 561 nm). The IC50 values were calculated using XLfit model 205.
The term IC50 denotes the concentration that inhibits the measured activity by half. Consider `Cc1cc(NC(=O)CN(C2CCCCC2)S(=O)(=O)c2cccc3ccccc23)no1` [Example 12], for which the IC50 stood at 6000 nM. In the case of `Cc1cc(C)c(S(=O)(=O)N[C@@H](C)CNc2cccc3ncccc23)c(C)c1` [Example 126, 2,4,6-Trimethyl-N-[(1S)-1-methyl-2-(quinolin-5-Ylamino)ethyl]benzenesulfonamide], the IC50 was 75 nM.

`CCOc1ccc(S(=O)(=O)NCCc2ccc(S(N)(=O)=O)cc2)c2cccnc12` [Example 6]: the IC50 was determined as 700 nM.

As to `Cc1cc(C)c(S(=O)(=O)N[C@@H](C)COc2cccc3cnccc23)c(C)c1` [Example 77, N-[(1S)-2-(5-Isoquinolinyloxy)-1-methylethyl]-2,4,6-trimethylbenzenesulfonamide], the IC50 turned out to be 17 nM. As for `Cc1cc(C)c(S(=O)(=O)N[C@@H](C)COc2ccnc3ccccc23)c(C)c1` [Example 81, 2,4,6-Trimethyl-N-[(1S)-1-methyl-2-(4-quinolinyloxy)ethyl]benzenesulfonamide], the IC50 came to 370 nM. As for `Cc1cc(C)c(S(=O)(=O)N[C@@H](C)COc2ccc3c(c2)OCO3)c(C)c1` [Example 80, N-[(1S)-2-(1,3-Benzodioxol-5-yloxy)-1-methylethyl]-2,4,6-trimethylbenzenesulfonamide], the IC50 turned out to be 230 nM.

For the compound `Cc1nn(-c2ccccc2)c(C)c1S(=O)(=O)N[C@@H](C)COc1cccc2cnccc12` [Example 160, N-[(1S)-2-(Isoquinolin-5-yloxy)-1-methylethyl]-3,5-dimethyl-1-phenyl-1-pyrazole-4-sulfonamide], the IC50 was found to be 96 nM. For the compound `Cc1cc(C)c(S(=O)(=O)N[C@@H](C)COc2ncnc3ccccc23)c(C)c1` [Example 82, 2,4,6-Trimethyl-N-[(1S)-1-methyl-2-(4-quinazolinyloxy)ethyl]benzenesulfonamide], the IC50 turned out to be 3400 nM.

With `Cc1cc(C)c(S(=O)(=O)N[C@@H](C)CNc2ccc(C)c3ncccc23)c(C)c1` [Example 123, 2,4,6-Trimethyl-N-{(1S)-1-methyl-2-[(8-methylquinolin-5-yl)amino]ethyl}-benzenesulfonamide], the IC50 was determined as 18 nM. Under `Cc1cc(C)c(S(=O)(=O)NCCc2c(C)[nH]c3ccc(C)cc23)c(C)c1` [Example 8] stands 1200 nM; under `O=[N+]([O-])c1cc(Cl)ccc1NCCCNS(=O)(=O)c1ccc2ccccc2c1` [Example 5], 640 nM; under `Cc1cc(C)c(S(=O)(=O)N[C@@H](C)COc2cccc3cccnc23)c(C)c1` [Example 83, 2,4,6-Trimethyl-N-[(1S)-1-methyl-2-(8-quinolinyloxy)ethyl]benzenesulfonamide], 8900 nM. Under `Cc1cc(Br)ccc1S(=O)(=O)NC(C)CCc1ccccc1` (stereo not drawn) [Example 19, 4-Bromo-2-methyl-N-(1-methyl-3-phenyl-propyl)-benzenesulfonamide] stands 540 nM; under `C=CCN(c1nc(C)c(Cl)c(OC)n1)S(=O)(=O)c1ccc(C)cc1` [Example 14], 1700 nM. In the case of `Cc1cc(C)c(S(=O)(=O)N[C@@H](C)COc2cccc3ncccc23)c(C)c1` [Example 79, 2,4,6-Trimethyl-N-[(1S)-1-methyl-2-(5-quinolinyloxy)ethyl]benzenesulfonamide], the IC50 is 140 nM. Take `Cc1cc(C)c(S(=O)(=O)NC(C)CCc2ccccc2)c(C)c1` (stereo not drawn) [Example 32, 2,4,6-Trimethyl-N-(1-methyl-3-phenyl-propyl)-benzenesulfonamide]: the IC50 was found to be 90 nM. Take `CCNc1nc(NC(C)C)nc(OCCNS(=O)(=O)c2cc(C)ccc2C)n1` [Example 15]: the IC50 is 6300 nM. With `CCCN(c1nc(C)c(Cl)c(OC)n1)S(=O)(=O)c1ccc(C)cc1` [Example 9], the IC50 amounted to 1600 nM. Take `CC(C)c1cc(C(C)C)c(S(=O)(=O)NCc2ccncc2)c(C(C)C)c1` [Example 10]: the IC50 was determined as 600 nM. For the compound `Cc1cc(C)c(S(=O)(=O)N[C@@H](C)CNc2cccc3[nH]ncc23)c(C)c1` [Example 125, N-[(1S)-2-(1H-Indazol-4-ylamino)-1-methylethyl]-2,4,6-trimethylbenzenesulfonamide], the IC50 came out at 42 nM. For the compound `Cc1cc(C)c(S(=O)(=O)N[C@@H](C)CNc2c(C)ccc3ncccc23)c(C)c1` [Example 124, 2,4,6-Trimethyl-N-{(1S)-1-methyl-2-[(6-methylquinolin-5-yl)amino]ethyl}-benzenesulfonamide], the IC50 was 20 nM. `Cc1cccc(C)c1OCC(C)NS(=O)(=O)c1cccc([N+](=O)[O-])c1` (stereo not drawn) [Example 34, N-[2-(2,6-Dimethyl-phenoxy)-1-methyl-ethyl]-3-nitro-benzenesulfonamide]: the IC50 was found to be 3000 nM. Turning to `COC(=O)c1c(C)oc2ccc(N(C(=O)c3ccncc3)S(=O)(=O)c3ccc(C)cc3C)cc12` [Example 11], the IC50 worked out at 2200 nM. As for `Cc1cc(NC(=O)CN(CC2CCCCC2)S(=O)(=O)c2cccc3ccccc23)no1` [Example 13], the IC50 came to 2200 nM. Turning to `CCCCOc1ccc(NS(=O)(=O)c2cccc3c(N(C)C)cccc23)cn1` [Example 16], the IC50 amounted to 4400 nM. Turning to `Cc1csc(NC(=O)CN(CC(C)C)S(=O)(=O)c2cccc3ccccc23)n1` [Example 7], the IC50 is 700 nM. Under `Cc1cc(C)c(S(=O)(=O)N[C@@H](C)COc2cccc3[nH]ccc23)c(C)c1` [Example 78, N-[(1S)-2-(1H-Indol-4-yloxy)-1-methylethyl]-2,4,6-trimethylbenzenesulfonamide] stands 23 nM.

The values are drawn from patent publication US20090093485A1, “Novel Sulphonamide Derivatives as Glucocorticoid Receptor Modulators for the Treatment of Inflammatory Diseases” (ASTRAZENECA AB, priority 2004, published 2009).
